Test results taken from article PMC8252719, “Macrocyclic FKBP51 Ligands Define a Transient Binding Mode with Enhanced Selectivity” (Angewandte Chemie (International Ed. in English), 2021).
Read-outs that look alike come from different tables or passages of the source.

Key:
FKBP51FK1 [1] = target: T1, FKBP51FK1 (Homo sapiens, UniProt Q13451); experiment: competitive fluorescence polarization assay, FKBP51FK1; format: binding
T1 sequence (Q13451 42-130 limits assumed): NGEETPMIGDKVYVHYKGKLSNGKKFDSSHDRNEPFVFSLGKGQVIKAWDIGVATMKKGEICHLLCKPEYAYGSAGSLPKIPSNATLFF
Procedure: Table S1. Ki values were determined by a competitive fluoresc ence polarization assay.
4.1 Binding curves of 13a, c and d […]

FKBP12 = FKBP12 (Homo sapiens, UniProt P62942); experiment: competitive fluorescence polarization assay, FKBP12; format: binding; details: for binding to FKBP12 (in words): fluorescence polarization assay
FKBP12.6 = FKBP12.6 (Homo sapiens, UniProt P68106); experiment: competitive fluorescence polarization assay, FKBP12.6; format: binding; details: for binding to FKBP12.6 (in words): fluorescence polarization assay
FKBP51FK1 [2] = target: T1, FKBP51FK1; experiment: isothermal titration calorimetry (ITC); format: binding
Procedure: 1. ITC of compounds 13a and 13d
Figure S1. A) Binding of compound 13a to FKBP51FK1 determined by isothermal titration calorimetry at 25 °C. A 20 µM solution FKBP51FK1 formulated in 20 mM
HEPES pH 8.0, 20 mM NaCl, 5% glycerol and 2% DMSO was placed in the sample cell of a PEAK-ITC instrument. The syringe was filled with a 200 µM solution of
13a formulated in the same buffer. After equilibration the compound was titrated into the sample cell by 12 injection s of 3 µl each. The obtained data was analyzed
Binding of compound 13d to FKBP51FK1 determined by isothermal titration calorimetry at 25 °C. A 13 µM solution FKBP51FK1 formulated in 20 mM HEPES pH
8.0, 20 mM NaCl, 5% glycerol and 2% DMSO was placed in the sample cell of a PEAK -ITC instrument. The syringe was filled with a 10 0 µM solution of 13d
formulated in the same buffer. After equilibration the compound was titrated into the sample cell by 12 injections of 3 µl each. The obtained data was analyzed using […]

[3] = tested on: phorbol/ionomycin-induced IL8 secretion in Jurkat cells; experiment: immunostimulation/suppression assay in Jurkat cells (IL8 secretion); format: cell-based, human; details: IL8 ELISA; for effect on phorbol/ionomycin-induced IL8 secretion (compound on its own): 50 ng/ml PMA and 750 ng/ml Ionomycin, six hours
Procedure: Importantly, unlike the pan‐selective FKBP ligand [4.3.1]16h ^[21]
5.1 Immunostimulation/suppression assays in JURKAT cells
Figure S6A. Cellular analysis of compound FK[431]-16h in Jurkat cells
150 000 Jurkat cells were seeded in a 96 well plate in 180 µl and treated for 30 minutes with 13d or FK[431]-16h at the indicated […]
Cells were pelleted and supernatant collected and stored at -80°C. The IL8 content in the s upernatant was determined using the human IL8/CXCL8 DuoSet Elisa kit (RndSystems) according to manufacturers instructions . The sample volume of supernatant was adapted to 150 µl. Optical density wa s assessed using a Tecan Spark.
(§1) 5.2 IKKα inhibition in SIM-A9 cells
(§2) Cell culture and treatments
(§3) Murine microglia SIM-A9 cells were cultured at 37 °C, 5% CO2 in Dulbecco's Modified Eagle Medium (DMEM) high glucose with GlutaMAX (Thermo Fisher Scientific, 10566016), supplemented with 1 mM sodium pyruvate (Thermo Fisher Scientific, 11360-070), 10% fetal bovine serum (PAN Biotech, P30-8500), and 1% antibiotic-antimycotic (Thermo Fisher Scientific, 15240-062).
(§4) For the preparation of whole-cell lysates, confluent SIM-A9 cell cultures treated with the indicated compounds for 16 h in the above mentioned growth medium, were washed two times with ice-cold DPBS (Thermo Fisher Scientific, 14190-144) and lysed in an appropriate volume of RIPA buffer (Thermo Fisher Scientific, 89901), freshly supplemented with 1x cOmplete™ EDTA-free protease inhibitor cocktail (Roche, 4693132001) and 1x PhosSTOP™ phosphatase inhibitor cocktail (Roche, 4906837001) for 20 min on ice.
(§5) Subsequently, samples were centrifuged for 10 min at 4°C at 13000 rpm. The resulting supernatants were transferred to new 1.5 ml reaction tubes and prepared for separation with an SDS-PAGE system and analyzed by immunoblotting.
(§6) SDS-PAGE and immunoblotting
Separation of proteins was performed with the Criterion™ Vertical Electrophoresis Cell System (Bio-Rad, 1656001) on 4–20% Criterion™ TGX™ Precast Midi Protein Gels (Bio-Rad, 5671095). […]

[4] = tested on: IKKα phosphorylation in SIM-A9 cells; experiment: IKKα inhibition in SIM-A9 cells (Western blot); format: cell-based, murine
Procedure: We next explored if the macrocyclic ligands could interfere with the cellular functions of FKBP51. We therefore treated SIM‐A9 cells, which were recently discovered as a SAFit‐sensitive cellular model for stress‐mediated secretory autophagy. ^[24] […] (Figure 2 F and S6C). […]
as §1, §2, §3, §4, §5, §6
Separation of proteins was performed with the Criterion™ Vertical Electrophoresis Cell System (Bio-Rad, 1656001) on 4–20% Criterion™ TGX™ Precast Midi Protein Gels (Bio-Rad, 5671095). Immunoblotting was performed with the Trans-Blot Turbo Transfer System (Bio-Rad, 1704150) on 0.2 µm PVDF Trans-Blot Turbo Transfer Membranes (Bio-Rad, 1704157). For immunodetection, membranes were placed in TBS, supplemented with 0.05% Tween (Sigma-Aldrich, P9416) and 5% non-fat milk (Carl Roth, T145.1) for 1 h at RT and then incubated with the primary antibody diluted in TBS-T overnight at 4°C. Following primary antibodies were used:
Phospho-IKKα S176/phospho-IKKβ S177 (1:1000, Cell Signaling Technology, 2078), IKKα (1:1000, Cell Signaling Technology, 1682) and GAPDH (1:1000, Cell Signaling Techology, 5174).
Then, immunoblots were washed and probed with horseradish peroxidase- conjugated secondary antibody (1:10000, Cell Signaling Technology, 7074) for 1 h at RT. Immunoreactive protein bands were visualized using Clarity Western ECL Substrate (Bio-Rad, 1705061) or Clarity Max Western ECL Substrate (Bio-Rad, 1705062). Determination of the band intensities was performed with […]

FKBP51FK1 [5] = target: T1, FKBP51FK1; details: values derived from literature; read-out: FKBP51FK1 K i; cited from earlier work
Description: Table 1 Affinities of the macrocycles with amino acid containing linker determined by a competitive fluorescence polarization assay. | column: FKBP51FK1 / K i [μM]^[a]

FKBP52FK1 = target: T2, FKBP52FK1 (Homo sapiens, UniProt Q02790); experiment: competitive fluorescence polarization assay, FKBP52FK1; format: binding; details: Table 1 compounds tested up to 80 μM
T2 sequence (Q02790 50-138 limits assumed): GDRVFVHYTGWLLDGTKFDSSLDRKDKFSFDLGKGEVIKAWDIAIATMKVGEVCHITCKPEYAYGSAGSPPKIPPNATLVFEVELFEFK

[6] = meta B ring substituent R6, read-out: FKBP51 Ki (Table S1)

Sequence of FKBP12 (P62942 whole entry): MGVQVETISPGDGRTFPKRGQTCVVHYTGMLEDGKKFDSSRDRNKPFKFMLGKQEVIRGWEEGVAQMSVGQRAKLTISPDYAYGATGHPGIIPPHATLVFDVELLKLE
Sequence of FKBP12.6 (P68106 whole entry): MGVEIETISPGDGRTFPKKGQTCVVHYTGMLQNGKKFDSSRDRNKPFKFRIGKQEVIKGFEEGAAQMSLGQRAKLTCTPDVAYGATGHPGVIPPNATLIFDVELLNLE

| Ki (FKBP51FK1 [1]; [6]) [nM] | Ki (FKBP51FK1 [1]; ± = standard error from three independent measurements [b] or error from two independent measurements [d], SEM, read-out: FKBP51FK1 K i) [nM] | Ki (FKBP12; competitive fluorescence polarization assay, >80 μM = highest measurable concentration before compound precipitation, ± = standard error from three independent measurements, read-out: FKBP12 K i) [nM] | Ki (FKBP12.6; competitive fluorescence polarization assay, >80 μM = highest measurable concentration before compound precipitation, ± = standard error from three independent measurements, read-out: FKBP12.6 K i) [nM] | Kd (FKBP51FK1 [2]; 25 °C, 20 mM HEPES pH 8.0, 20 mM NaCl, 5% glycerol, 2% DMSO, one-site binding model, mean ± SD from 3 independent experiments, SD, read-out: Kd-value for FKBP51FK1 by ITC) [nM] | Kd (FKBP51FK1 [2]; isothermal calorimetry, enthalpy-driven, read-out: K d for FKBP51 by ITC) [nM] | binding to FKBP12 (in words) (FKBP12) | binding to FKBP12.6 (in words) (FKBP12.6) | binding to FKBP52FK1 (in words) (FKBP52FK1) | SMILES | effect on phorbol/ionomycin-induced IL8 secretion (compound on its own) [3] | effect on the immunosuppressive activity of FK506 ([3]; 30 minutes pretreatment, then 0.2 nM FK506, PMA/Ionomycin) | concentration at which apparent maximal inhibition of IKKα phosphorylation was already reached ([4]; SIM-A9 cells, lowest tested concentration) [µM] | inhibition of IKKα phosphorylation (in words) ([4]; murine microglia SIM-A9 cells, 16 h treatment, Western blot, three (macrocycles) or six (SAFit) independent cellular assays) | Ki (FKBP51FK1 [5]) [nM] |
| --- | --- | --- | --- | --- | --- | --- | --- | --- | --- | --- | --- | --- | --- | --- |
| 290 | 400 ± 50 | > 80000 | > 80000 | 600 ± 100 | 600 |  |  |  | COc1ccc(CC[C@H]2OC(=O)[C@@H]3CCCCN3C(=O)[C@@H](C3CCCCC3)NC(=O)C3(CC3)NC(=O)COc3cccc2c3)cc1OC [13 d] | neither immunostimulatory nor immunosuppressive | did not block | ≤ 1 | inhibited |  |
|  |  |  |  |  |  |  |  |  | C=CC[C@@H]1/C=C(\C)C[C@H](C)C[C@H](OC)[C@H]2O[C@@](O)(C(=O)C(=O)N3CCCC[C@H]3C(=O)O[C@H](/C(C)=C/[C@@H]3CC[C@@H](O)[C@H](OC)C3)[C@H](C)[C@@H](O)CC1=O)[C@H](C)C[C@@H]2OC [FK506, reference compound] | blocks |  |  |  | 104 |
| 390 |  |  |  |  |  | no binding | no binding | no binding | COc1cc2cc(c1)[C@@H](CCc1ccc(OC)c(OC)c1)OC(=O)[C@@H]1CCCCN1C(=O)[C@@H](C1CCCCC1)NC(=O)C(C)(C)NC(=O)CO2 [compound 26] |  |  |  |  |  |
| 370 |  |  |  |  |  | no binding | no binding | no binding | COc1ccc(CC[C@H]2OC(=O)[C@@H]3CCCCN3C(=O)[C@@H](C3CCCCC3)NC(=O)C(C)(C)NC(=O)COc3cc(O)cc2c3)cc1OC [compound 25] |  |  |  |  |  |
